Laboratory results: US10722520B2, “Heterocyclic compounds and their use in preventing or treating bacterial infections” (MUTABILIS, priority 2016, dated 2020)
Where two headings read alike, the source gives them in different places.

Key:
AmpC (P99) [1] = target: T1, AmpC (P99) (Enterobacter cloacae, UniProt P05364); conditions: read-out: IC50 β-lactamase AmpC (P99); class (C); nitrocefin 200 μM, 30-min pre-incubation, enzyme 0.2 nM
AmpC (PAE) [2] = target: T2, AmpC (PAE) (Pseudomonas aeruginosa, UniProt P24735); conditions: read-out: IC50 β-lactamase AmpC (PAE); class (C); nitrocefin 200 μM, 30-min pre-incubation, enzyme 0.4 nM
T2 sequence (P24735 27-397): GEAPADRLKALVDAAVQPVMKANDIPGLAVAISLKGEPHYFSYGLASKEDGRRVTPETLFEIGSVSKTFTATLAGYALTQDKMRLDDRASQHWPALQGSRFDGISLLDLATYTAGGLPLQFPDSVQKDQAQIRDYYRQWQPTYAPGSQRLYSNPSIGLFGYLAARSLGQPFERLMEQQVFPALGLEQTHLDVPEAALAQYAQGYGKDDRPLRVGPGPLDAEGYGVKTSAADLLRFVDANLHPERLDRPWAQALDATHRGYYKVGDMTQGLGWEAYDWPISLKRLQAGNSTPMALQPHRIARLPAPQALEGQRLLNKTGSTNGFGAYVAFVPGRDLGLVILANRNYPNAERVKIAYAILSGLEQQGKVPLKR

OXA-15 = OXA-15 (Pseudomonas aeruginosa, UniProt Q51574); conditions: read-out: IC50 β-lactamase OXA-15; class (D); nitrocefin 200 μM, 30-min pre-incubation, enzyme 0.4 nM
Sequence of OXA-15 (Q51574 22-275): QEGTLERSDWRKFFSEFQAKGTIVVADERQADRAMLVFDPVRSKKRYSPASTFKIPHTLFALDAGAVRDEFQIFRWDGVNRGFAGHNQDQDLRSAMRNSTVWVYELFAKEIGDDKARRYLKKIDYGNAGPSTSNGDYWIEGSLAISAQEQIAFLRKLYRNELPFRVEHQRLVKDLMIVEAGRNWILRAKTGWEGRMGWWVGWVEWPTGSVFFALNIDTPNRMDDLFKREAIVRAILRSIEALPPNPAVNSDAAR

AmpC (P99) [3] = target: T1, AmpC (P99); assay: biochemical
AmpC (PAE) [4] = target: T2, AmpC (PAE); assay: biochemical

T1 sequence (P05364 21-381): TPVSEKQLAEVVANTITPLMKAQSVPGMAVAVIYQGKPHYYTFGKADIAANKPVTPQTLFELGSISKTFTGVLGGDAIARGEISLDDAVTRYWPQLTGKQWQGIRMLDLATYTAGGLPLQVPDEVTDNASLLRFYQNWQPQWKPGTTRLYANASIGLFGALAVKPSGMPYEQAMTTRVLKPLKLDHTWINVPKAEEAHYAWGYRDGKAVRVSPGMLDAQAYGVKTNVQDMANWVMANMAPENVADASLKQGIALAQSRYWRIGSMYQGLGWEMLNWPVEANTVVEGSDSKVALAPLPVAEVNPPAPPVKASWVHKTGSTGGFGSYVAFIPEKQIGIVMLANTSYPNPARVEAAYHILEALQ

Row | Compound | IC50 (AmpC (P99) [1]) [nM] | IC50 (AmpC (PAE) [2]) [nM] | IC50 (OXA-15) [nM] | IC50 (AmpC (P99) [3]) [nM] | IC50 (AmpC (PAE) [4]) [nM]
1 | O=C1N2CC(n3ccnn3)=CC(C2)N1OS(=O)(=O)[O-].[Na+] (stereo not shown) [Example 2, sodium [7-oxo-3-(triazol-1-yl)-1,6-diazabicyclo[3.2.1]oct-3-en-6-yl]sulfate] | 10 | 150 | 40 |  | 
2 | O=C1N2CC(n3cncn3)=CC(C2)N1OS(=O)(=O)[O-].[Na+] (stereo not shown) [Example 5, sodium [7-oxo-3-(1,2,4-triazol-1-yl)-1,6-diazabicyclo[3.2.1]oct-3-en-6-yl]sulfate] |  |  |  | 16 | 140
3 | O=C1N2CC(n3ccsc3=O)=CC(C2)N1OS(=O)(=O)[O-].[Na+] (stereo not shown) [Example 1, Sodium [7-oxo-3-(2-oxo-thiazol-3-yl)-1,6-diaza-bicyclo[3.2.1]oct-3-en-6-yl]sulfate] |  |  |  | 30 | 120
